Measurements taken from ChEMBL document CHEMBL1128688, “Synthesis and biological evaluation of a series of substituted benzo[a]phenanthridines as agonists at D1 and D2 dopamine receptors” (J Med Chem, 1995).

Experiments:
[1] = target: D(1A) dopamine receptor (Rattus norvegicus) (UniProt P18901); assay: Binding affinity for dopamine receptor D1 in rat striatal homogenate
[2] = target: D(2) dopamine receptor (Rattus norvegicus) (UniProt P61169); assay: Binding affinity for Dopamine receptor D2 of rat striatal homogenate
[3] = target: Adenylate cyclase type 5 (Rattus norvegicus) (UniProt Q04400); assay: Intrinsic activity measured as ability to stimulate dopamine sensitive Adenylate cyclase activity was measured in rat striatum.; type: functional, tissue-based
[4] = target: Dopamine receptors; D1 & D2 (Rattus norvegicus) (UniProt P18901+P61169); assay: Relative binding affinity for dopamine receptors D1 and D2 in rat striatal homogenates

Sequence of Adenylate cyclase type 5 (Rattus norvegicus) (Q04400 whole entry): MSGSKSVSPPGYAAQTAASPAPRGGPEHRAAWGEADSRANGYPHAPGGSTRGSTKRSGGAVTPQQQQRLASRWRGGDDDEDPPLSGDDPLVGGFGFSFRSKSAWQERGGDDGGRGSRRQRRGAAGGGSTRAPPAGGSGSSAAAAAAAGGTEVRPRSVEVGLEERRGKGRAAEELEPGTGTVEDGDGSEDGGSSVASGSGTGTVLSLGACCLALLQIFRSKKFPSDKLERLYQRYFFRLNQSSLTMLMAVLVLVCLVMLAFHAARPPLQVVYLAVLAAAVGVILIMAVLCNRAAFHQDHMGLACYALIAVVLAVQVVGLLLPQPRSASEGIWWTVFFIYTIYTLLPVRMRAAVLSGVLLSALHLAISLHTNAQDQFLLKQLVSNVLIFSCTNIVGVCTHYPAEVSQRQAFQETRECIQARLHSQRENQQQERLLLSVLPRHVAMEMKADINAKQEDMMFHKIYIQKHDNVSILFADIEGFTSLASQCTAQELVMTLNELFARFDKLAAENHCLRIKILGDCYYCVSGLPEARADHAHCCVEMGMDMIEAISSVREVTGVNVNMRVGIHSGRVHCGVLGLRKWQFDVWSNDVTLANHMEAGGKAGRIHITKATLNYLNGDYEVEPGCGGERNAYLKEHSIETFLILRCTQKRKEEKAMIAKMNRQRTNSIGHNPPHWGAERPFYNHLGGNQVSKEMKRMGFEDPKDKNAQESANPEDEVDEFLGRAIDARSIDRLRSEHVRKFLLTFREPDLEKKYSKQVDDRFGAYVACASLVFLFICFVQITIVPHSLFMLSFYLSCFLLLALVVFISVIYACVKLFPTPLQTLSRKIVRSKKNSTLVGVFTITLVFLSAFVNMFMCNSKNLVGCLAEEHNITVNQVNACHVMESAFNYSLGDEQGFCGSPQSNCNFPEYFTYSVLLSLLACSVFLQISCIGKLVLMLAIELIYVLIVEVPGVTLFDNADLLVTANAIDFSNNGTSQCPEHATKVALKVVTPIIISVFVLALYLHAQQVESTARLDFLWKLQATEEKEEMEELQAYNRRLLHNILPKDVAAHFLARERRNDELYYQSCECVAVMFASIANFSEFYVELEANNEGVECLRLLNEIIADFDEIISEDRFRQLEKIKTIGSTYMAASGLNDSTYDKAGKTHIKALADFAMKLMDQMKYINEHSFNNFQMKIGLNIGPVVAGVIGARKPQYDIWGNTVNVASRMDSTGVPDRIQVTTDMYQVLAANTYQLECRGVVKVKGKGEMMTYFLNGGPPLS
Sequence of D(1A) dopamine receptor (Rattus norvegicus) (P18901 whole entry): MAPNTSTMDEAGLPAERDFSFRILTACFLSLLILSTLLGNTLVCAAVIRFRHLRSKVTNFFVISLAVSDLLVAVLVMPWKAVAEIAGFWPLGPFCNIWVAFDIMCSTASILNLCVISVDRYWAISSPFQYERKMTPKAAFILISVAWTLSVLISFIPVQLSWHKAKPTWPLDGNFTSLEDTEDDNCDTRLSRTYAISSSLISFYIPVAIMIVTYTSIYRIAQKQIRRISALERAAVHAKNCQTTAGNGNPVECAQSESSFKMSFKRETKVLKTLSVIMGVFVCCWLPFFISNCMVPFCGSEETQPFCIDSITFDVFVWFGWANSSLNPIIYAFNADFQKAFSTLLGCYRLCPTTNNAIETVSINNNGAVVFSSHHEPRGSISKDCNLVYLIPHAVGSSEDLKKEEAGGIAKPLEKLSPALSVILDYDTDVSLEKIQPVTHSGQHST
Sequence of D(2) dopamine receptor (Rattus norvegicus) (P61169 whole entry): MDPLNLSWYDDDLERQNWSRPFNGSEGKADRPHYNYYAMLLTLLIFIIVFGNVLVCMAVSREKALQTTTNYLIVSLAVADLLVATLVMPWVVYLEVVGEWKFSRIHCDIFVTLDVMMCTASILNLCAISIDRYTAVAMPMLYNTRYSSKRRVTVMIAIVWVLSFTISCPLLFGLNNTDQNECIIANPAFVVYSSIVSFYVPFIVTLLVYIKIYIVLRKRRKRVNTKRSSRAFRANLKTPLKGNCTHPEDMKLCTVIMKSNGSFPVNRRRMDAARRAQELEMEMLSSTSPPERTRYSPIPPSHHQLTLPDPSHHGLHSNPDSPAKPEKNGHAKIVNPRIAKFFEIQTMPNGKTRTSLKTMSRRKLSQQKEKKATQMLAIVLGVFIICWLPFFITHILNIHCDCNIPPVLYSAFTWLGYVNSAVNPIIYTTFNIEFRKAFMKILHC

| SMILES | K0.5 [1] [nM] | K0.5 [2] [nM] | Intrinsic activity [3] [%] | Selectivity [4] |
| --- | --- | --- | --- | --- |
| Cc1ccc2c(c1)CN[C@@H]1CCc3cc(O)c(O)cc3[C@@H]21 | 5.06 | 18 | 105 | 3.6 |
| Oc1ccc2c(c1)CN[C@@H]1CCc3cc(O)c(O)cc3[C@@H]21 | 12.2 | 53.6 | 104 | 4.4 |
| CCCN1Cc2cc(C)ccc2[C@@H]2c3cc(O)c(O)cc3CC[C@H]21 | 181 | 29.4 | 20 | 0.16 |
| Oc1ccc2c(c1)[C@@H]1c3cc(O)c(O)cc3CC[C@H]1NC2 | 18.8 | 194 | 95 | 10.3 |
| Oc1cc2c(cc1O)[C@H]1c3cc(-c4ccccc4)ccc3CN[C@@H]1CC2 | 187 | 90.2 | 60 | 0.5 |
| Oc1cc2c(cc1O)[C@H]1c3ccccc3CN[C@@H]1CC2 | – | – | 95 | – |
| CN1CCc2cc(Cl)c(O)cc2[C@@H](c2ccccc2)C1 | – | > 500 | – | – |
| Cc1ccc2c(c1)[C@@H]1c3cc(O)c(O)cc3CC[C@H]1NC2 | 8.66 | – | 91 | – |
| CCc1ccc2c(c1)[C@@H]1c3cc(O)c(O)cc3CC[C@H]1NC2 | 29.2 | 423 | 103 | 14.5 |
| Cc1cccc2c1CN[C@@H]1CCc3cc(O)c(O)cc3[C@@H]21 | 6.58 | 18 | 80 | 2.7 |
| CCCN1Cc2c(C)cccc2[C@@H]2c3cc(O)c(O)cc3CC[C@H]21 | 23.4 | 9.01 | 89 | – |
| CCCN1Cc2ccccc2[C@@H]2c3cc(O)c(O)cc3CC[C@H]21 | 180 | 25.7 | 40 | – |
| O=c1[nH]c2ccccc2n1CCCN1CCC(n2c(=O)[nH]c3cc(Cl)ccc32)CC1 | > 1000 | 1 | – | < 1000 |
